From article PMC6100082, “Pyridine-Ureas as Potential Anticancer Agents: Synthesis and In Vitro Biological Evaluation” (Molecules : A Journal of Synthetic Chemistry and Natural …, 2018)

What was measured:
Format in all cases: cell-based, human
786-0 = assay: NCI one-dose SRB assay (Renal Cancer)
Description: (§1) The structures of all the newly prepared pyridine-ureas 8a–n were submitted to the National Cancer Institute (NCI) Developmental Therapeutic Program. Eight compounds 8b, 8d, 8e, 8i, 8j and 8l–n were selected to be examined for their in vitro growth inhibitory activity. The anticancer assays were carried out according to the protocol of the Drug Evaluation Branch, NCI, Bethesda. The selected pyridine-ureas were tested at one dose primary anticancer assay against a panel of approximately 58 cancer lines (concentration 10^−5 M). The tested human cancer cell lines emerged from nine different cancer subtypes: leukemia, colon, melanoma, ovarian, lung, CNS, renal, breast and prostate cancers. The sulforhodamine B (SRB) protein assay was adopted to estimate the cell viability and growth. The results were reported as mean-graph of the percentage growth of the treated cells, and presented as percentage growth inhibition (GI%) caused by the test compounds (Table 2).
(§2) The anticancer assays were performed in accordance with the protocol of the Drug Evaluation Branch, NCI, Bethesda. A 48 h drug exposure protocol was used and sulforhodamine B (SRB) protein assay was applied to estimate the cell viability and growth, as reported earlier.

TK-10 = assay: NCI one-dose SRB assay (Renal Cancer)
Description: as §1, §2

SN12C = assay: NCI one-dose SRB assay (Renal Cancer)
Description: as §1, §2

RXF 393 = assay: NCI one-dose SRB assay (Renal Cancer)
Description: as §1, §2

A498 = assay: NCI one-dose SRB assay (Renal Cancer)
Description: as §1, §2

UO-31 = assay: NCI one-dose SRB assay (Renal Cancer)
Description: as §1, §2

MDA-MB-468 = assay: NCI one-dose SRB assay (Breast Cancer)
Description: as §1, §2

HS 578T = assay: NCI one-dose SRB assay (Breast Cancer)
Description: as §1, §2

MCF7 = assay: NCI one-dose SRB assay (Breast Cancer)
Description: as §1, §2

MDA-MB-231 = assay: NCI one-dose SRB assay (Breast Cancer)
Description: as §1, §2

T-47D = assay: NCI one-dose SRB assay (Breast Cancer)
Description: as §1, §2

BT-549 = assay: NCI one-dose SRB assay (Breast Cancer)
Description: as §1, §2

HOP-92 = assay: NCI one-dose SRB assay (Non-Small Cell Lung Cancer)
Description: as §1, §2

NCI-H322M = assay: as above
Description: as §1, §2

NCI-H522 = assay: as above
Description: as §1, §2

NCI-H460 = assay: as above
Description: as §1, §2

EKVX = assay: as above
Description: as §1, §2

HOP-62 = assay: as above
Description: as §1, §2

A549/ATCC = assay: as above
Description: as §1, §2

NCI-H23 = assay: as above
Description: as §1, §2

NCI-H226 = assay: as above
Description: as §1, §2

OVCAR-3 = assay: NCI one-dose SRB assay (Ovarian Cancer)
Description: as §1, §2

SK-OV-3 = assay: NCI one-dose SRB assay (Ovarian Cancer)
Description: as §1, §2

OVCAR-8 = assay: NCI one-dose SRB assay (Ovarian Cancer)
Description: as §1, §2

IGROV1 = assay: NCI one-dose SRB assay (Ovarian Cancer)
Description: as §1, §2

OVCAR-5 = assay: NCI one-dose SRB assay (Ovarian Cancer)
Description: as §1, §2

OVCAR-4 = assay: NCI one-dose SRB assay (Ovarian Cancer)
Description: as §1, §2

NCI/ADR-RES = assay: NCI one-dose SRB assay (Ovarian Cancer)
Description: as §1, §2

Substance: 1-(4-Chloro-4-(trifluoromethyl)cyclohexa-2,5-dien-1-yl)-3-(6-(3,4-dimethoxyphenyl)-2-methylpyridin-3-yl)urea [Compound 8l]
- Percentage growth inhibition (GI%) (786-0; 786-0, 10 μM): 25%
- Growth Percent (786-0; 786-0, 1.00E-5 Molar): 75.10%
- Percentage growth inhibition (GI%) (TK-10; TK-10, 10 μM): 12%
- Growth Percent (TK-10; TK-10, 1.00E-5 Molar): 88.19%
- Percentage growth inhibition (GI%) (SN12C; 10 μM): 22%
- Growth Percent (SN12C; 1.00E-5 Molar): 78.52%
- Percentage growth inhibition (GI%) (RXF 393; RXF 393, 10 μM): 28%
- Growth Percent (RXF 393; RXF 393, 1.00E-5 Molar): 72.65%
- Percentage growth inhibition (GI%) (A498; A498, 10 μM): 43%
- Growth Percent (A498; A498, 1.00E-5 Molar): 57.69%
- Percentage growth inhibition (GI%) (UO-31; UO-31, 10 μM): 28%
- Growth Percent (UO-31; UO-31, 1.00E-5 Molar): 72.37%
- Percentage growth inhibition (GI%) (MDA-MB-468; MDA-MB-468, 10 μM): 52%
- Growth Percent (MDA-MB-468; MDA-MB-468, 1.00E-5 Molar): 48.57%
- Percentage growth inhibition (GI%) (HS 578T; 10 μM): 19%
- Growth Percent (HS 578T; 1.00E-5 Molar): 81.01%
- Percentage growth inhibition (GI%) (MCF7; MCF7, 10 μM): 42%
- Growth Percent (MCF7; MCF7, 1.00E-5 Molar): 58.28%
- Percentage growth inhibition (GI%) (MDA-MB-231; MDA-MB-231, 10 μM): 12%
- Growth Percent (MDA-MB-231; MDA-MB-231/ATCC, 1.00E-5 Molar): 88.41%
- Percentage growth inhibition (GI%) (T-47D; 10 μM): 51%
- Growth Percent (T-47D; 1.00E-5 Molar): 49.20%
- Percentage growth inhibition (GI%) (BT-549; BT-549, 10 μM): 12%
- Growth Percent (BT-549; BT-549, 1.00E-5 Molar): 88.97%
- Percentage growth inhibition (GI%) (HOP-92; HOP-92, 10 μM): 30%
- Growth Percent (HOP-92; HOP-92, 1.00E-5 Molar): 70.53%
- Percentage growth inhibition (GI%) (NCI-H322M; 10 μM): 13%
- Growth Percent (NCI-H322M; 1.00E-5 Molar): 87.05%
- Percentage growth inhibition (GI%) (NCI-H522; NCI-H522, 10 μM): 57%
- Growth Percent (NCI-H522; NCI-H522, 1.00E-5 Molar): 43.02%
- Percentage growth inhibition (GI%) (NCI-H460; NCI-H460, 10 μM): 48%
- Growth Percent (NCI-H460; NCI-H460, 1.00E-5 Molar): 52.19%
- Percentage growth inhibition (GI%) (EKVX; 10 μM): 33%
- Growth Percent (EKVX; 1.00E-5 Molar): 67.30%
- Percentage growth inhibition (GI%) (HOP-62; HOP-62, 10 μM): 23%
- Growth Percent (HOP-62; HOP-62, 1.00E-5 Molar): 77.10%
- Percentage growth inhibition (GI%) (A549/ATCC; 10 μM): 56%
- Growth Percent (A549/ATCC; 1.00E-5 Molar): 44.62%
- Percentage growth inhibition (GI%) (NCI-H23; NCI-H23, 10 μM): 29%
- Growth Percent (NCI-H23; NCI-H23, 1.00E-5 Molar): 71.36%
- Percentage growth inhibition (GI%) (NCI-H226; NCI-H226, 10 μM): 28%
- Growth Percent (NCI-H226; NCI-H226, 1.00E-5 Molar): 72.73%
- Percentage growth inhibition (GI%) (OVCAR-3; OVCAR-3, 10 μM): 43%
- Growth Percent (OVCAR-3; OVCAR-3, 1.00E-5 Molar): 57.00%
- Percentage growth inhibition (GI%) (SK-OV-3; SK-OV-3, 10 μM): 16%
- Growth Percent (SK-OV-3; SK-OV-3, 1.00E-5 Molar): 84.22%
- Percentage growth inhibition (GI%) (OVCAR-8; OVCAR-8, 10 μM): 19%
- Growth Percent (OVCAR-8; OVCAR-8, 1.00E-5 Molar): 81.32%
- Percentage growth inhibition (GI%) (IGROV1; IGROV1, 10 μM): 17%
- Growth Percent (IGROV1; IGROV1, 1.00E-5 Molar): 83.06%
- Percentage growth inhibition (GI%) (OVCAR-5; OVCAR-5, 10 μM): 15%
- Growth Percent (OVCAR-5; OVCAR-5, 1.00E-5 Molar): 85.15%
- Percentage growth inhibition (GI%) (OVCAR-4; OVCAR-4, 10 μM): 25%
- Growth Percent (OVCAR-4; OVCAR-4, 1.00E-5 Molar): 75.13%
- Percentage growth inhibition (GI%) (NCI/ADR-RES; 10 μM): 31%
- Growth Percent (NCI/ADR-RES; 1.00E-5 Molar): 69.67%
